Holding throughout (type): cell-based
In one test the test system is Burkholderia cepacia. Kind of test: Zone of inhibition assay, 24 hour minimum inhibitory concentration, Burkholderia cepacia. To be noted: Day-Engley neutralizing media. On the procedure:
(§1) The minimum inhibitory concentrations of ethynyl 4-methylbenzene sulfone, available from Aldrich Chemical Co., and the sulfones prepared in Examples 1-15 were determined against the bacteria Burkholderia cepacia and Staphylococcus aureus by the zone of inhibition assay method common in the art. Burkholderia cepacia and Staphylococcus aureus was contacted with each sulfone for 24 hours in a Day-Engley neutralizing media (Difco Manual, 10th Ed., p. 261-263 (1984). The results are shown in Table 1.

A further test has as its system Staphylococcus aureus. In words: Zone of inhibition assay, 24 hour minimum inhibitory concentration, Staphylococcus aureus. The note with it: Day-Engley neutralizing media. On the procedure: as §1
For a further test, the system named is Aspergillus niger. Kind of test: Zone of inhibition assay, 5 day minimum inhibitory concentration, Aspergillus niger. To be noted: ATCC16404, 120 h; Aspergillus niger ATCC #16404; 5 days; Day-Engley neutralizing media. The protocol:
The minimum inhibitory concentrations of ethynyl 4-methylbenzene sulfone and the sulfones prepared in Examples 1-15 were determined against the fungi Aspergillus niger by the zone of inhibition assay method common in the art. A. niger ATCC #16404 was contacted with each sulfone for 5 days in a Day-Engley neutralizing media.

Converted amounts (≈) assume the structure as drawn.

Consider `C#CS(=O)(=O)c1c(C)cc(C)cc1C` [Ethynyl 2,4,6-Trimethylbenzene Sulfone, Ethynyl 2,4,6-trimethylbenzene sulfone], for which the MIC with Burkholderia cepacia was in the range of 300 to 1000 µg/mL (≈ 1440 to 4800 µM); with Staphylococcus aureus, 300 to 1000 µg/mL (≈ 1440 to 4800 µM); against Aspergillus niger, 3000 to 10000 µg/mL (≈ 14400 to 48000 µM).
Regarding `C#CS(=O)(=O)c1ccc(OC)c(OC)c1` [Ethynyl 3,4-Dimethoxybenzene Sulfone, Ethynyl 3,4-dimethoxybenzene sulfone], the figures for the MIC with Burkholderia cepacia, in the test on Staphylococcus aureus and against Aspergillus niger were more than 1000 µg/mL, 10 to 30 µg/mL (≈ 44.2 to 133 µM) and more than 10000 µg/mL, respectively.
With `C#CS(=O)(=O)c1ccc(CC)cc1` [Ethynyl 4-Ethylbenzene Sulfone], the MIC against Burkholderia cepacia lay within 300 to 1000 µg/mL (≈ 1540 to 5150 µM); in the test with Staphylococcus aureus it was 3 to 10 µg/mL (≈ 15.4 to 51.5 µM); against Aspergillus niger it was 3000 to 10000 µg/mL (≈ 15400 to 51500 µM).
Regarding `C#CS(=O)(=O)c1ccc(OC)cc1` [Ethynyl 4-Methoxybenzene Sulfone, ethynyl 4-methoxybenzene sulfone], the MIC lay within 30 to 100 µg/mL (≈ 153 to 510 µM) against Burkholderia cepacia, 1 to 3 µg/mL (≈ 5.1 to 15.3 µM) against Staphylococcus aureus and 1000 to 3000 µg/mL (≈ 5100 to 15300 µM) with Aspergillus niger.
Regarding `C#CS(=O)(=O)c1ccc(C)cc1` [Ethynyl 4-Methylbenzene Sulfone, ethynyl 4-methylbenzene sulfone, reference compound], the MIC with Burkholderia cepacia was in the range of 100 to 300 µg/mL (≈ 555 to 1660 µM); in the test with Staphylococcus aureus, 3 to 10 µg/mL (≈ 16.6 to 55.5 µM); against Aspergillus niger, 3000 to 10000 µg/mL (≈ 16600 to 55500 µM).
As to `C#CS(=O)(=O)c1ccc(C(C)(C)C)cc1` [Ethynyl 4-t-Butylbenzene Sulfone, Ethynyl 4-t-butylbenzene sulfone], the MIC was more than 1000 µg/mL against Burkholderia cepacia, 30 to 100 µg/mL (≈ 135 to 450 µM) in the test with Staphylococcus aureus and more than 10000 µg/mL against Aspergillus niger.
For `C#CS(=O)(=O)c1ccc(OC(F)(F)F)cc1` [Ethynyl 4-trifluoromethoxybenzene sulfone] the same measures were more than 1000 µg/mL, 3 to 10 µg/mL (≈ 12 to 40 µM) and more than 10000 µg/mL.
For `C#CS(=O)(=O)c1ccccc1` [Ethynyl Benzene Sulfone, Ethynyl benzene sulfone] the same measures were 10 to 30 µg/mL (≈ 60.2 to 181 µM), 1 to 3 µg/mL (≈ 6.02 to 18.1 µM) and 1000 to 3000 µg/mL (≈ 6020 to 18100 µM).
In the same order, the values of `Cc1cc(C)c(S(=O)(=O)C#CI)c(C)c1` [Iodoethynyl 2,4,6-trimethylbenzene sulfone] are 300 to 1000 µg/mL (≈ 898 to 2990 µM), 100 to 300 µg/mL (≈ 299 to 898 µM) and 100 to 300 µg/mL (≈ 299 to 898 µM).
`COc1ccc(S(=O)(=O)C#CI)cc1OC` [Iodoethynyl 3,4-Dimethoxybenzene Sulfone, Iodoethynyl 3,4-dimethoxybenzene sulfone]: the results for the MIC in the test with Burkholderia cepacia, against Staphylococcus aureus and in the test with Aspergillus niger were 300 to 1000 µg/mL (≈ 852 to 2840 µM), 30 to 100 µg/mL (≈ 85.2 to 284 µM) and 300 to 1000 µg/mL (≈ 852 to 2840 µM), respectively.
`CCc1ccc(S(=O)(=O)C#CI)cc1` [Iodoethynyl 4-Ethylbenzene Sulfone, Iodoethynyl 4-ethylbenzene sulfone]: the MIC in the test on Burkholderia cepacia lay in the range of 100 to 300 µg/mL (≈ 312 to 937 µM); with Staphylococcus aureus, 0.3 to 1 µg/mL (≈ 0.937 to 3.12 µM); against Aspergillus niger, 10 to 30 µg/mL (≈ 31.2 to 93.7 µM).
In the same order, the values of `COc1ccc(S(=O)(=O)C#CI)cc1` [Iodoethynyl 4-Methoxybenzene Sulfone, iodoethynyl 4-methoxybenzene sulfone] are 30 to 100 µg/mL (≈ 93.1 to 310 µM), 3 to 10 µg/mL (≈ 9.31 to 31 µM) and 30 to 100 µg/mL (≈ 93.1 to 310 µM).
In the same order, the values of `Cc1ccc(S(=O)(=O)C#CI)cc1` [Iodoethynyl 4-Methylbenzene Sulfone, Iodoethynyl 4-methylbenzene sulfone] are 0.3 to 1 µg/mL (≈ 0.98 to 3.27 µM), 0.3 to 1 µg/mL (≈ 0.98 to 3.27 µM) and 100 to 300 µg/mL (≈ 327 to 980 µM).
For `CC(C)(C)c1ccc(S(=O)(=O)C#CI)cc1` [Iodoethynyl 4-t-Butylbenzene Sulfone, Iodoethynyl 4-t-butylbenzene sulfone] the same measures were 300 to 1000 µg/mL (≈ 862 to 2870 µM), 1 to 3 µg/mL (≈ 2.87 to 8.62 µM) and 100 to 300 µg/mL (≈ 287 to 862 µM).
Take `O=S(=O)(C#CI)c1ccc(OC(F)(F)F)cc1` [Iodoethynyl 4-trifluoromethoxybenzene sulfone]: the figures for the MIC against Burkholderia cepacia, against Staphylococcus aureus and in the test with Aspergillus niger were 100 to 300 µg/mL (≈ 266 to 798 µM), 0.3 to 1 µg/mL (≈ 0.798 to 2.66 µM) and 30 to 100 µg/mL (≈ 79.8 to 266 µM), respectively.
In the case of `O=S(=O)(C#CI)c1ccccc1` [Iodoethynyl Benzene Sulfone, Iodoethynyl benzene sulfone], the MIC lay within 3 to 10 µg/mL (≈ 10.3 to 34.2 µM) in the test on Burkholderia cepacia, 0.3 to 1 µg/mL (≈ 1.03 to 3.42 µM) in the test on Staphylococcus aureus and 300 to 1000 µg/mL (≈ 1030 to 3420 µM) against Aspergillus niger.

For orientation: MIC means the lowest concentration found to suppress growth. Lower therefore signals inhibition by little substance.
